Among the data in US8163929B2, “Dihydropyridone amides as P2X7 modulators” (Roche Palo Alto LLC, priority 2008, dated 2012) are pIC50 values, retold here.

The experiment concerns the target T1, P2X7 (UniProt Q99572).
T1 sequence (Q99572 1-595): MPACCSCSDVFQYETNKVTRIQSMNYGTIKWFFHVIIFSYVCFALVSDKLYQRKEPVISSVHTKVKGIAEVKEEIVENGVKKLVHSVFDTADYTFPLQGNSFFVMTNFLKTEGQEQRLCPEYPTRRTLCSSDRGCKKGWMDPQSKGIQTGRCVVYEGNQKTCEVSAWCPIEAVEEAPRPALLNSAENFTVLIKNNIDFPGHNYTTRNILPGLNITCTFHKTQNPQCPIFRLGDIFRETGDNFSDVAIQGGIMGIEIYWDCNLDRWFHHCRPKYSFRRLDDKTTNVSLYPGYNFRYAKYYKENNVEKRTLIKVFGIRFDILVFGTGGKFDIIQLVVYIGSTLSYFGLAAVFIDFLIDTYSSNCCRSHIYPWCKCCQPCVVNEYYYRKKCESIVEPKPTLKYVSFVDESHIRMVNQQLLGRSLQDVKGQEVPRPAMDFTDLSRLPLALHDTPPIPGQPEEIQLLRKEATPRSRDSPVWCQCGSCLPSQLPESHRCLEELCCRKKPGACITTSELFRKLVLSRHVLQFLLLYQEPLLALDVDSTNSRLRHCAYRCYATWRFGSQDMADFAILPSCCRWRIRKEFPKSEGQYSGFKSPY
As to the kind of experiment: P2X7 activity of Table 1. The class given is cell-based. The following applies: pIC50 values for P2X7. The method in brief: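 FLIPR calcium flux with fluo-3 in 1321N1 cells expressing human P2X7 and HEK293 cells expressing rat P2X7, in HBSS with 2 mM CaCl2 and 2.5 mM probenecid. Antagonist pre-incubated 20 min at room temperature, then BzATP added (100 μM human, 5 μM rat). Peak response over 5 min normalised to 5 μM ionomycin.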
For the molecule `Cc1ccc(-n2ncc(=O)n(CCO)c2=O)cc1NC(=O)C1=CN(C)C(=O)C[C@H]1c1ccc(F)cc1` [Compound 100, (S)-4-(4-Fluoro-phenyl)-1-methyl-6-oxo-1,4,5,6-tetrahydro-pyridine-3-carboxylic acid {5-[4-(2-hydroxy-ethyl)-3,5-dioxo-4,5-dihydro-3H-[1,2,4]triazin-2-yl]-2-methyl-phenyl}-amide], the negative-log IC50 (pIC50) (usually the negative decadic logarithm of the IC50, by convention in mol/L) is listed as 7.5. `Cc1ccc(-n2ncc(=O)n(CCO)c2=O)cc1NC(=O)C1=CN(C)C(=O)C[C@H]1c1cccc(F)c1` [Compound 101, (S)-4-(3-Fluoro-phenyl)-1-methyl-6-oxo-1,4,5,6-tetrahydro-pyridine-3-carboxylic acid {5-[4-(2-hydroxy-ethyl)-3,5-dioxo-4,5-dihydro-3H-[1,2,4]triazin-2-yl]-2-methyl-phenyl}-amide] displayed a negative-log IC50 (pIC50) of 7.57. For `Cc1ccc(-c2cc(C(F)(F)F)[nH]n2)cc1NC(=O)C1=CNC(=O)C[C@H]1c1ccc(F)cc1` [Compound 102, (S)-4-(4-Fluoro-phenyl)-6-oxo-1,4,5,6-tetrahydro-pyridine-3-carboxylic acid [2-methyl-5-(5-trifluoromethyl-1H-pyrazol-3-yl)-phenyl]-amide] the value was 5.77; for `COC[C@@H](O)Cn1nc(-c2ccc(C)c(NC(=O)C3=CN(C)C(=O)C[C@H]3c3cccc(F)c3)c2)cc1C` [Compound 103, (S)-4-(3-Fluoro-phenyl)-1-methyl-6-oxo-1,4,5,6-tetrahydro-pyridine-3-carboxylic acid {5-[1-((S)-2-hydroxy-3-methoxy-propyl)-5-methyl-1H-pyrazol-3-yl]-2-methyl-phenyl}-amide], 7.1; for `COC[C@H](O)Cn1nccc(-c2ccc(C)c(NC(=O)C3=CN(C)C(=O)C[C@H]3c3cccc(F)c3)c2)c1=O` [Compound 104, (S)-4-(3-Fluoro-phenyl)-1-methyl-6-oxo-1,4,5,6-tetrahydro-pyridine-3-carboxylic acid {5-[2-((R)-2-hydroxy-3-methoxy-propyl)-3-oxo-2,3-dihydro-pyridazin-4-yl]-2-methyl-phenyl}-amide], 7.8. Then `COC[C@H](O)Cn1nccc(-c2ccc(C)c(NC(=O)C3=CN(C)C(=O)C[C@H]3c3ccc(F)cc3)c2)c1=O` [Compound 105, (S)-4-(4-Fluoro-phenyl)-1-methyl-6-oxo-1,4,5,6-tetrahydro-pyridine-3-carboxylic acid {5-[2-((R)-2-hydroxy-3-methoxy-propyl)-3-oxo-2,3-dihydro-pyridazin-4-yl]-2-methyl-phenyl}-amide], with 7.57; and `COC[C@H](O)Cn1nccc(-c2ccc(C)c(NC(=O)C3=CNC(=O)C[C@H]3c3ccc(F)cc3)c2)c1=O` [Compound 106, (S)-4-(4-Fluoro-phenyl)-6-oxo-1,4,5,6-tetrahydro-pyridine-3-carboxylic acid {5-[2-((R)-2-hydroxy-3-methoxy-propyl)-3-oxo-2,3-dihydro-pyridazin-4-yl]-2-methyl-phenyl}-amide], with 7.885. Then `Cc1ccc(-n2ncc(=O)[nH]c2=O)cc1NC(=O)C1=CN(C)C(=O)C[C@H]1c1ccc(F)cc1` [Compound 107, (S)-4-(4-Fluoro-phenyl)-1-methyl-6-oxo-1,4,5,6-tetrahydro-pyridine-3-carboxylic acid [5-(3,5-dioxo-4,5-dihydro-3H-[1,2,4]triazin-2-yl)-2-methyl-phenyl]-amide], with 6.81; and `Cc1ccc(-n2ncc(=O)[nH]c2=O)cc1NC(=O)C1=CN(C)C(=O)C[C@H]1c1cccc(F)c1` [Compound 108, (S)-4-(3-Fluoro-phenyl)-1-methyl-6-oxo-1,4,5,6-tetrahydro-pyridine-3-carboxylic acid [5-(3,5-dioxo-4,5-dihydro-3H-[1,2,4]triazin-2-yl)-2-methyl-phenyl]-amide], with 7.145.
